Patent publication US12415830B2, “Steroid compound, and use thereof and preparation method therefor” (Chengdu Kanghong Pharmaceutical Co Ltd, priority 2019, dated 2025)
Like-named read-outs stand apart in the source and are kept apart here.

Key:
GABAA4 (α4β3δ) receptor = target: T1, GABAA4 (α4β3δ) receptor (Homo sapiens, UniProt P28472+P48169); assay: Patch-clamp electrophysiology, compound alone or with 10 nM GABA (Table 3); type: cell-based; conditions: for Emax: relative to peak current in GABA only
T1 construct: expressed in transfected cells; host or cells: HEK293 (transient transfection, plasmids 1:1:1)
Method: The present invention applies the two subunits of the recombinant GABAA receptor: α1β2γ2 and α4β3δ to evaluate the potency of the exemplary compounds in vitro by patch-clamp electrophysiology.
Extracellular fluid: 140 mM NaCl, 5 mM CsCl, 2 mM CaCl2·2H2O, 1 mM MgCl2·6H2O, 5 mM HEPES, 10 mM D-Glucose, pH=7.4 (NaOH).
Intracellular fluid: 130 mM CsCl, 0.1 mM CaCl2·H2O, 2 mM MgCl2·6H2O, 1.1 mM EGTA, 5 mM Na2-ATP, 10 mM HEPES, pH=7.2 (CsOH).
HEK293 cell line was cultured in DMEM containing 10% fetal bovine serum and 5% carbon dioxide at 37° C.
Cell passage: The old medium was removed, and the cells were washed once with PBS. Then 1 mL 0.25%-Trypsin-EDTA solution was added to digest cells. The culture dish was incubated at 37° C. in pre-warmed incubator for 0.5 minutes. As soon as cells were detached, about 5 mL 37° C. pre-warmed complete medium was added. Cell aggregates were dissociated by gentle pipetting. The cell suspension was transferred into a sterile centrifuge tube and then the cell suspension was be spun at approximately 1000 rpm for 5 minutes. The cells were amplified or maintained by seeding 2.5×10^5 cells in a 6 cm dish (final medium volume: 5 mL). For transfection, 8×10^3 cells were plated onto coverslips, and cultured in a 24-well plate (final medium volume: […]).
Transfection: Second day, the transfection of GABAA4 (α4, β3, δ plasmid ratio 1:1:1) was performed. The X-tremeGENE HP DAN Transfection Reagents kit were used. The ratio of the plasmid and transfection reagent was 1 μg: 2 μL. The amount of plasmid in the 24-well plate was 0.5 μg per well, and the transfection reagent was 1 μL. The following specific steps were taken for preparing the 12 wells: The 600 μL Opti-MEM was added to a sterile centrifuge tube along with 6 μg of plasmid and was allowed to mix well; Then, the 12 μL of transfection reagent was added, mixed well following 15 min incubation at room temperature. The transfection complex was then inoculated into the cell, 50 μL per well, and the transfection complex was lightly stirred and mixed.
This mixture was changed on the third day, and the patch-clamp was performed on the fourth day.
Glass pipette (BF 150-86-10, Sutter Instruments) was pulled using a micropipette puller (P97, Sutter Instruments). The glass pipette was manipulated using a micro-manipulator (MP285, Sutter Instruments) under the microscope (IX71, Olympus). After touching the cell, a slight suction was applied to achieve high seal resistance (GQ). Fast capacitance (in pF) compensation was made after achieving high seal, and the membrane was broken. Cell capacitance (in pF) compensation was made from whole-cell capacitance compensation after the whole cell mode was achieved. No leak subtraction was made.
The test and control solutions flowed into a recording chamber mounted on the stage of an inverted microscope via a gravity-fed solution delivery system. During the experiment, solutions were withdrawn from the recording chamber by vacuum aspiration. Each concentration was tested at multiple times. All tests were performed at room temperature.
Whole cell model recorded GABAA4 receptors current experimental protocol was indicated as follows: When sealing, cell was at a holding potential of −70 mV, with gap-free mode to record the peak current. The cell would be applied with 10 nM GABA to active current. After the test articles application for 30 s, each concentration of test articles was applied with 10 nM GABA followed by 2 minutes washout using extracellular solution. Finally, 10 μM GABA was used as a positive control. The data were collected by EPC-10 amplifier and stored in PatchMaster (HEKA) software.
The following criteria are used to determine whether the data is acceptable: • (1) Electrode resistance <5MΩ • (2) Seal resistance >1GΩ • (3) The start of access resistance <15 MΩ • (4) The end of access resistance <15 MΩ • (5) No obvious spontaneous current decay. • (6) No obvious current leakage when the membrane potential is-70 mv. […]

mice = assay: Elevated Plus Maze (EPM) testing; type: in vivo; conditions: 5 consecutive days, 30 min after last administration, male mice
Excerpt: 57.3.2 Elevated Plus Maze (EPM) testing: EPM for exploratory behavior was used to assess general motor and anxiety-like behavior that was consisting of two open arms and two closed arms extending from a common central platform, thus forming anxiety-like symptoms. The anxiolytic compound would relieve the anxiety conflict status of animals in the test system. The experimental mice were randomly divided into 4 groups based on weight, including a negative control group, two different dosage groups (1 mg/kg and 3 mg/kg) of test compounds (KH004 or KH022), and every group had 10 male mice. Mice were administered with corresponding dosage for test intervention for 5 consecutive days in advance, and conducting anxiolytic experiments after 30 min of the last administration. The percentage of the retention time (latency) of mice open arms were used as the main index to evaluate the anxiolytic effect of KH004 and KH022, the results are shown in Table 5.

[1] = Pharmacokinetics in brain and plasma after dosing; type: in vivo, CD-1 mice
Method: KH022 in the present invention and the control described in example 56
The experimental animals are CD-1 mice.
Preparation of test compounds with 30% SBECD in water for intragastric administration. On the first day of the experiment, the animals in the first group are […] with the solution of KH022 or the control with the dosage of 5 mL/kg; before the administration, the animals were weighed, and the administration volume was calculated according to the body weight. Whole blood samples (about 0.03 ml per group) were collected at a specified time by saphenous vein puncture (or other suitable collection locations). Blood samples were immediately processed for plasma by centrifugation at approximately 4° C., 3,200 g for 10 min, quickly placed in dry ice, and kept below −20° C. until LC/MS/MS analysis. At each time point, animals were euthanized using CO2 and then brain tissue was collected, rinsed and dried with physiological saline, and homogenized with 4 times the brain weight (g) volume of 15 mM PBS (pH7.4):MeOH=2:1. After homogenization, samples were transferred to labeled centrifuge tubes and quickly placed in dry ice, stored at or below −20° C. for LC-MS/MS analysis.
The concentrations of the test compound in dose formulation samples was determined by the LC/UV, and the calibration curve contains at least 6 calibration standards, R^2≥0.999. The concentrations of the test compound in biological matrix was determined by the LC/MS/MS method. The retention time of test compounds or internal standards, chromatogram acquisition and chromatogram integration were processed by software Analyst (Applied Biosystems), and data statistics were processed by software Watson LIMS (Thermo Fisher Scientific) or Analyst (Applied Biosystems). The unit of the analyte concentration in the sample is ng/ml, with 3 significant digits reserved, and all values expressed in percentages (such as % deviation and % coefficient of variation, etc.) were kept to one decimal place. […]

[2] = with 10 nM GABA, read-out: EC50 (with 10 nM GABA)
[3] = with 10 nM GABA, read-out: Emax (with 10 nM GABA)
[4] = without GABA, read-out: Emax (without GABA)

T1 sequence (P48169 36-554): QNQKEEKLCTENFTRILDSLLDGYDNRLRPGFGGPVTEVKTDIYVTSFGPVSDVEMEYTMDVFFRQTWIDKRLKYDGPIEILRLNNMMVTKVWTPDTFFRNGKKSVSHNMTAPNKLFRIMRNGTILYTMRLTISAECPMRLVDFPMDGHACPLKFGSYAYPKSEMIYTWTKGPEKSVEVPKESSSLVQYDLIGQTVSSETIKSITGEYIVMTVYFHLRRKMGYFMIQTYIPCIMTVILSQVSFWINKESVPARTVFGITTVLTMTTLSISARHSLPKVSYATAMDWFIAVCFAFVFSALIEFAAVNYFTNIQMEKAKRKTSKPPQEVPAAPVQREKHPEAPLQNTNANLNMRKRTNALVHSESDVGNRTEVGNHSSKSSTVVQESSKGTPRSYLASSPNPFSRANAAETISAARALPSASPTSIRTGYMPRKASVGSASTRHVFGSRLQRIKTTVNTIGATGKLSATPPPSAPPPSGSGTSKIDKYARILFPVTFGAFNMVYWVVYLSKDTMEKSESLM
T1 sequence (P28472 26-473): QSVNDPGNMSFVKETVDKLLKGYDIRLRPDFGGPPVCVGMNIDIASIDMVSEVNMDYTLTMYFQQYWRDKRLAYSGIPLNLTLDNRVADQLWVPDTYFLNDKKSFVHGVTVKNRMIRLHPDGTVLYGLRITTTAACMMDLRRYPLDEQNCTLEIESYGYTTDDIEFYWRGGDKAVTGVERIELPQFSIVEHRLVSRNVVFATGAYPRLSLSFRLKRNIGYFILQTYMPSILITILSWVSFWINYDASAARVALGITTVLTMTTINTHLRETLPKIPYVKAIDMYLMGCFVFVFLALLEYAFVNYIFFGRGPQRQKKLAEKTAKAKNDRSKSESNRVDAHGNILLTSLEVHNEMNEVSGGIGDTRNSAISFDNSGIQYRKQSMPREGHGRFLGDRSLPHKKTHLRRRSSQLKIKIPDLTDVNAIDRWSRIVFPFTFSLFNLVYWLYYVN
T1 sequence (O14764 25-452 partner): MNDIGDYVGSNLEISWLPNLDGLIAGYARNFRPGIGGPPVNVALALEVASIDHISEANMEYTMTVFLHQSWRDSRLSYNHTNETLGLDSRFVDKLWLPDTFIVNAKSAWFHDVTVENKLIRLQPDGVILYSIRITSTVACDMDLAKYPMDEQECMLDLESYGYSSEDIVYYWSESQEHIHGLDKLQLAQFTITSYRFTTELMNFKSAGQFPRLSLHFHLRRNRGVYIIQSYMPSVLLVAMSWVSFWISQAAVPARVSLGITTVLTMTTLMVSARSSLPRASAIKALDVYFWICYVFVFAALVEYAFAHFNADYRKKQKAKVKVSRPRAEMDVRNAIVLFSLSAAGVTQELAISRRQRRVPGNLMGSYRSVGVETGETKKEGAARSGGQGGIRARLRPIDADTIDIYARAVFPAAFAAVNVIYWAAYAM

SMILES	EC50 (GABAA4 (α4β3δ) receptor; [2]) [nM]	Emax (GABAA4 (α4β3δ) receptor; [3]) [%]	EC50 (GABAA4 (α4β3δ) receptor; without GABA, read-out: EC50 (without GABA)) [nM]	Emax (GABAA4 (α4β3δ) receptor; [4]) [%]	The retention time of mice open arms (mice; 1 mg/kg) [%]	The retention time of mice open arms (mice; 3 mg/kg) [%]	content in the mouse brain relative to the control ([1]; 2h, same dosage) [times]	clearance in the mouse brain compared with the control ([1]; same dosage)	EC50 (GABAA4 (α4β3δ) receptor; EC50 (with 10 nM GABA), with 10 nM GABA) [nM]	detection in the brain ([1]; mouse brain, 8h)
C[C@]12CC[C@@H](O)C[C@@H]1CC[C@@H]1[C@@H]2CC[C@]2(C)[C@@H](C(=O)Cn3ncnn3)CCC[C@@H]12 [KH004]	135	172	172	158	27.21 ± 11.15	36.44 ± 13.28				
C[C@@]1(O)CC[C@@]2(C)[C@@H](CC[C@@H]3[C@@H]2CC[C@]2(C)[C@@H](C(=O)Cn4ncnn4)CCC[C@@H]32)C1 [KH022]	386	88.6		45.8	31.40 ± 16.41	39.46 ± 11.82	2.5	cleared more slowly		
C[C@@]1(O)CC[C@H]2[C@H](CC[C@@H]3[C@@H]2CC[C@]2(C)[C@@H](C(=O)Cn4cc(C#N)cn4)CC[C@@H]32)C1 [The control, reference compound]		149		114					219	no detection
